Measured values taken from PubChem BioAssay (NCI).
Where “and” joins values, the source holds several entries; their conditions need not be identical. Equal entries are not always repeated.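 Exposure lasted 48 hours, with cells grown in 96-well plates and compounds tested at five concentrations. GI50 is the concentration that inhibits growth by half. Definition used: TGI = concentration required for complete inhibition of growth.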

Key:
Test in all cases: NCI tumour cell line growth inhibition, 48 h
NCI-H226 lung = tested on: NCI-H226 lung
ACHN renal = tested on: ACHN renal
MOLT-4 leukemia = tested on: MOLT-4 leukemia
HT29 colon = tested on: HT29 colon
OVCAR-8 ovarian = tested on: OVCAR-8 ovarian
MCF7 breast = tested on: MCF7 breast
SF-295 CNS = tested on: SF-295 CNS
SNB-19 CNS = tested on: SNB-19 CNS
TK-10 renal = tested on: TK-10 renal
SF-268 CNS = tested on: SF-268 CNS

| Compound | GI50 (NCI-H226 lung) | TGI (NCI-H226 lung) | GI50 (ACHN renal) | TGI (ACHN renal) | GI50 (MOLT-4 leukemia) | TGI (MOLT-4 leukemia) | GI50 (HT29 colon) | TGI (HT29 colon) | GI50 (OVCAR-8 ovarian) | TGI (OVCAR-8 ovarian) | GI50 (MCF7 breast) | TGI (MCF7 breast) | GI50 (SF-295 CNS) | TGI (SF-295 CNS) | GI50 (SNB-19 CNS) | TGI (SNB-19 CNS) | GI50 (TK-10 renal) | TGI (TK-10 renal) | GI50 (SF-268 CNS) | TGI (SF-268 CNS) |
| --- | --- | --- | --- | --- | --- | --- | --- | --- | --- | --- | --- | --- | --- | --- | --- | --- | --- | --- | --- | --- |
| O=C(c1ccccc1)c1c(NCC(O)CN2CCCC2)n(Cc2ccccc2)c(=O)n(Cc2ccccc2)c1=O (configuration not stated) | 18.6 µM | 48.4 µM | 22.3 µM | 54.7 µM | 19.7 µM | > 100 µM | 17.3 µM | 33.6 µM | 18.5 µM | 36.2 µM | 42.5 µM | > 100 µM | 18 µM | 33.7 µM | 63.4 µM | > 100 µM | 19.3 µM | 41.6 µM | 19.6 µM | 40.8 µM |
| CC(=O)N1CCN(C2=Nc3ccccc3CO2)C1=S | > 100 µM | > 100 µM | > 100 µM | > 100 µM | 41.9 µM | > 100 µM | 89.6 µM | > 100 µM | > 100 µM | > 100 µM | 38.2 µM | > 100 µM | 43.1 µM | > 100 µM | > 100 µM | > 100 µM | > 100 µM | > 100 µM | > 100 µM | > 100 µM |
| O=C(c1ccc2ccccc2c1O)N1CCCCC1 |  | > 100 µM |  | > 100 µM |  | 59.3 µM |  | > 100 µM |  | > 100 µM |  | > 100 µM |  | > 100 µM |  | > 100 µM |  | > 100 µM |  | > 100 µM |
| OCCOc1ccc(-c2cc(-c3ccccn3)nc(-c3ccccn3)c2)cc1 |  | 4.55 µM |  | 3.78 µM |  | 22.6 µM |  | > 100 µM |  | 2.6 µM |  | > 100 µM |  | > 100 µM |  | > 100 µM |  | > 100 µM |  | > 100 µM |
| Nc1ncnc2c1ncn2C1OC(COP(=O)(O)CP(=O)(O)O)C(O)C1O (configuration not stated) |  | > 100 µM |  | > 100 µM |  | > 100 µM |  | > 100 µM |  | > 100 µM |  | > 100 µM |  | > 100 µM |  | > 100 µM |  | > 100 µM |  | > 100 µM |
| O=P([O-])(O)OP(=O)([O-])O.[NH-][C@H]1CCCC[C@@H]1[NH-].[OH-].[OH-].[Pt+4] | 23.2 µM | 55 µM | 16.6 µM | 42.1 µM | > 100 µM | > 100 µM | 59.6 µM | > 100 µM | 22.7 µM | 63.6 µM | 32.1 µM | > 100 µM | 19.8 µM | 44.1 µM | 21.7 µM | 49.7 µM |  |  | 20.9 µM | 46.8 µM |
| C=CC(=O)Nc1ccc(Nc2nccc(-c3ccc(N4CCCC4)c(C#N)c3)n2)cc1 | > 25 µM | > 25 µM | 2.45 µM | > 25 µM | 7.43 µM | > 25 µM | > 25 µM | > 25 µM | > 25 µM | > 25 µM | 9.55 µM | > 25 µM | 9.44 µM | > 25 µM | > 25 µM | > 25 µM | 10.5 µM | > 25 µM | 15.8 µM | > 25 µM |
| CC(C)[C@](O)(c1ccc2cc(OC(F)F)c(OC(F)F)cc2c1)c1cn[nH]n1 | 23.1 µM and 18.9 µM | 55.4 µM and 46.1 µM | 25.7 µM and 19.3 µM | 93.3 µM and 54 µM | 30.1 µM and 17.1 µM | 82.7 µM and 62 µM | 16 µM and 20.8 µM | 36.3 µM and 46.6 µM | 29.6 µM and 26.4 µM | 81.1 µM and 62.5 µM |  | 22.4 µM and 35.9 µM | 15.8 µM and 14 µM | 33.4 µM and 29 µM | 22 µM and 15.7 µM | 51 µM and 41.8 µM | 17 µM and 12.6 µM | 38.4 µM and 35.7 µM | 18.7 µM and 14.4 µM | 50.3 µM and 34.6 µM |
| COc1cccc(C2CC(c3cc(OC)c(OC)c(OC)c3)=NN2)c1 (configuration not stated) | 28.9 µM | > 100 µM | 21.7 µM | 53 µM | 6.17 µM | 41.4 µM | 3.2 µM | 27.2 µM | 13.9 µM | 39 µM | 3.85 µM | 26.1 µM | 9.61 µM | 38.3 µM | 16.8 µM | > 100 µM | 23.7 µM | 85.2 µM | 13.6 µM | 81.2 µM |
| CC(C)=CCN=C(N)N |  | > 100 µM |  | > 100 µM |  | > 100 µM |  | > 100 µM |  | > 100 µM |  | > 100 µM |  | > 100 µM |  | > 100 µM |  | > 100 µM |  | > 100 µM |
| CCCN(CCC)CCCNCc1cc(I)cc(C)c1O | 22.3 µM | 66.1 µM | 17.1 µM | 34.8 µM | 10.7 µM | 23.4 µM | 7.21 µM | 20 µM | 17.4 µM | 35.7 µM | 17.6 µM | 31.8 µM | 13.7 µM | 27 µM | 18.2 µM | 40.8 µM | 16.1 µM | 30.6 µM | 15.9 µM | 29.4 µM |
| CO[C@H](C(=O)[C@@H](O)[C@@H](C)O)[C@@H]1Cc2cc3cc(O[C@H]4C[C@@H](O[C@H]5C[C@@H](O)[C@H](O)C(C)O5)[C@H](O)C(C)O4)c(C)c(O)c3c(O)c2C(=O)[C@H]1O[C@H]1C[C@@H](O[C@H]2C[C@@H](O[C@H]3C[C@@H](OC)[C@H](O)C(C)O3)[C@@H](O)C(C)O2)C(O)(O)C(C)O1 (some centres not stated) | 0.0545 µM | 0.461 µM | 0.191 µM | > 25 µM | 0.57 µM | > 25 µM | 0.212 µM | 5.01 µM | 0.225 µM | > 25 µM | 0.0108 µM | > 9.61 µM | 0.0601 µM | > 25 µM | 0.0971 µM | > 25 µM | 0.15 µM | > 24.1 µM | 0.128 µM | > 25 µM |
| O=C(O)CSCc1cccc2ccccc12 |  | > 100 µM |  | > 100 µM |  | > 100 µM |  | > 100 µM |  | > 100 µM |  | > 100 µM |  | > 100 µM |  | > 100 µM |  | > 100 µM |  | > 100 µM |
| CC1=NN(C(=O)c2ccccc2O)C(=O)/C1=C/c1ccc([N+](=O)[O-])cc1 | 0.23 µM | 7.93 µM and 25.1 µM | 0.545 µM | > 100 µM | 0.35 µM | > 100 µM | 4.22 µM | > 100 µM | 1.44 µM | > 100 µM | 0.392 µM | > 100 µM | 0.379 µM | > 100 µM | 0.464 µM | > 100 µM | 4.83 µM | > 100 µM | 0.444 µM | > 100 µM |
